Assay results taken from ChEMBL document CHEMBL1201862, “PubChem BioAssay data set” (2004).
Activity calls are given as the source filed them.

Tests used:
Cytochrome P450 1A2 = biological target: T1, Cytochrome P450 1A2 (Homo sapiens, UniProt P05177);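 also: PubChem cytochrome P450 panel assay, CYP1A2 panel member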
T1 sequence (P05177 whole entry): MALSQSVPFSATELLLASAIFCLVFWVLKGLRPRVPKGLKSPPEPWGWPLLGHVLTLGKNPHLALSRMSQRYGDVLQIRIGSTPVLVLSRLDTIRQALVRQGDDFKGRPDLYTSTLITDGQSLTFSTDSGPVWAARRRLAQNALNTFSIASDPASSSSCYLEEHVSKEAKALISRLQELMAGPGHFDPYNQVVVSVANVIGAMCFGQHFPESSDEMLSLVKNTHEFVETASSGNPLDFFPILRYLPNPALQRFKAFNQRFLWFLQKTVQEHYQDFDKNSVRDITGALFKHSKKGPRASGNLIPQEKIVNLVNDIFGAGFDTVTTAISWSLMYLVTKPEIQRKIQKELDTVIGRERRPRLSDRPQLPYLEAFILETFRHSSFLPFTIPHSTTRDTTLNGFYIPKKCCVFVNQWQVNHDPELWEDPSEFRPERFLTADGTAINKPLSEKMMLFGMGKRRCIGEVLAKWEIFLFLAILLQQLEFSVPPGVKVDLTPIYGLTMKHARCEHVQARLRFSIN

Cytochrome P450 3A4 = Cytochrome P450 3A4 (Homo sapiens, UniProt P08684);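 also: CYP3A4 tested as one member of a cytochrome P450 panel screen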
Chain of Cytochrome P450 3A4 (P08684 whole entry): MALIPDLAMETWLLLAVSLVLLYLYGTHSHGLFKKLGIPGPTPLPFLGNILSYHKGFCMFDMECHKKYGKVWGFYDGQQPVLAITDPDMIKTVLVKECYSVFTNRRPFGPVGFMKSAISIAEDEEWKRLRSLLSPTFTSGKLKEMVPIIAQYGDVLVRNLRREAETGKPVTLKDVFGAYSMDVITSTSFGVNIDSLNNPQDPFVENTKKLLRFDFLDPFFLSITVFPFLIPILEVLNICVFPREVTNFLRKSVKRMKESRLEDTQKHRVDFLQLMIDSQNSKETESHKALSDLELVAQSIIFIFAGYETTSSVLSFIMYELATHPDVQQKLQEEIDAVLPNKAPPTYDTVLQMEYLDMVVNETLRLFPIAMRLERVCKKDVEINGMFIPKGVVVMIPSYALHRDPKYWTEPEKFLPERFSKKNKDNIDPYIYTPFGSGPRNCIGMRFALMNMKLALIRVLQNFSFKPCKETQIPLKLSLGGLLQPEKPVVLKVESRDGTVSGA

[1] = NIH-3T3 fibroblast cytotoxicity, dose response, cytotoxicity control, cell-based, fluorescence, Alamar Blue, secondary assay (AID 2327); format: functional;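 also: NIH-3T3 mouse fibroblasts cultured with fluconazole at 8 µg/mL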
[2] = C. albicans growth with fluconazole, confirmation, fluorescence, retest (AID 2467); format: functional, cell-based
Cytochrome P450 2C9 = Cytochrome P450 2C9 (Homo sapiens, UniProt P11712)
Chain of Cytochrome P450 2C9 (P11712 whole entry): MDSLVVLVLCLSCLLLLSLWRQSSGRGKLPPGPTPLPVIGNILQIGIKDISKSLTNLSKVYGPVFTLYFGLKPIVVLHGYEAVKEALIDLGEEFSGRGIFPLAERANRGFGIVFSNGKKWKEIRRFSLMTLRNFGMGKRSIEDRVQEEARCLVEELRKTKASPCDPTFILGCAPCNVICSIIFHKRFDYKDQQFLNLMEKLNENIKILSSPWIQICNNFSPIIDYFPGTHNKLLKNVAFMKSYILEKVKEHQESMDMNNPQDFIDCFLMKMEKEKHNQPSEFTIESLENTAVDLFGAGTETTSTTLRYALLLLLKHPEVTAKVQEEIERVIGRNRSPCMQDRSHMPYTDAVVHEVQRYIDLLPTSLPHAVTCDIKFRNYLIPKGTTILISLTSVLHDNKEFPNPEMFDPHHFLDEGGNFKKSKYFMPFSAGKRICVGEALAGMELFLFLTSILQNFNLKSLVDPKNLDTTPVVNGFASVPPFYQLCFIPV

[3] = inhibitors of firefly luciferase expression or activity, dose response, H4 neuroglioma cells, luminescence (AID 1990); format: functional, cell-based
[4] = Luminescence Cell-Based Dose Response HTS to Identify Inhibitors of 5'UTR Stem-Loop Driven Prion Protein mRNA Translation in H4 Neuroglioblastoma Cells. [Related pubchem assays: 1827 (Project Summary), 1813 (Primary HTS)]; format: functional
[5] = inhibitors of SNCA 5'UTR-driven reporter translation, confirmation, H4 neuroglioma cells, luminescence (AID 1988); format: functional, cell-based
[6] = biological target: T2, Heat shock factor protein 1 (Mus musculus, UniProt P38532); test: inhibition of MG132-induced HSE-luciferase signal, confirmation, cell-based, NIH3T3, luminescence, dose retest (AID 2382); format: functional;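 also: NIH3T3 fibroblasts with HSF1-driven luciferase reporter stressed by proteasome inhibitor MG132; luminescence from HSF1-driven luciferase expression after 8 hours of MG132 stress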
T2 sequence (P38532 whole entry): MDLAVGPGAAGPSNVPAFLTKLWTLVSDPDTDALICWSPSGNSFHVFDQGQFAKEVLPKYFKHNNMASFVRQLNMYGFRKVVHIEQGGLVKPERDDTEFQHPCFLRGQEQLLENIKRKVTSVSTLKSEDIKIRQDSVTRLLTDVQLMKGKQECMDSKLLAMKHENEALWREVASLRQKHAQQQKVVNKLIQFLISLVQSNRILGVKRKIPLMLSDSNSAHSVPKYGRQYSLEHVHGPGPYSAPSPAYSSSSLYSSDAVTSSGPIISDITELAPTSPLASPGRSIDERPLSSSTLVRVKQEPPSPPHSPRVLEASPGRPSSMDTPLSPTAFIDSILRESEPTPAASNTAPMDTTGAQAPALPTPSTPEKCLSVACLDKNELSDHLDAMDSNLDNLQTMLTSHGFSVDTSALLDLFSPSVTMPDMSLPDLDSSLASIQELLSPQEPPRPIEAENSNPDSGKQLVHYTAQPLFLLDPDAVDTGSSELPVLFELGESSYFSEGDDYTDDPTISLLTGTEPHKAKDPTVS

Cytochrome P450 2C19 = Cytochrome P450 2C19 (Homo sapiens, UniProt P33261); test: Cytochrome panel assay with activity outcomes. Panel member name: p450-cyp2c19 Compounds with AC50 equal or less than 10 uM are considered active; format: functional; conditions: read-out: AC50
Chain of Cytochrome P450 2C19 (P33261 whole entry): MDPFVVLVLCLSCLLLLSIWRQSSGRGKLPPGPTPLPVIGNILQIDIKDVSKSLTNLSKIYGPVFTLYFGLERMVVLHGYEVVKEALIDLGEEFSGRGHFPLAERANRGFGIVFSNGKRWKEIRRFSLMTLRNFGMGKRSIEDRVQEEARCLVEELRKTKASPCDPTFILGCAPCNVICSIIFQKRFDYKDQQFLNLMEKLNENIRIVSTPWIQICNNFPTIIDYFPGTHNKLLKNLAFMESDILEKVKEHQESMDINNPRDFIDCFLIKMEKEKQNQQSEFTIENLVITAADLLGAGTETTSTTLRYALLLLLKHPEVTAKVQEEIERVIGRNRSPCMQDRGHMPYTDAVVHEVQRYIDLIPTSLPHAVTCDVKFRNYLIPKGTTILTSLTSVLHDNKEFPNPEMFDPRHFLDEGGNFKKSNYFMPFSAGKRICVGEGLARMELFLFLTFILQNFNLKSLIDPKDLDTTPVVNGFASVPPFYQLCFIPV

INS1 = test: beta cell apoptosis inhibitors, cytokine rescue, dose response, luminescence, retest (AID 449756); format: functional, cell-based; conditions: Rattus norvegicus;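 also: cell death triggered by IL-1 beta plus TNF-alpha plus IFN-gamma mixture; protective hits raise ATP signal compared with cytokine alone wells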
[7] = inhibitors of intracellular T. cruzi replication, confirmation, NIH3T3 host cells, beta-gal luminescence (AID 2044); format: functional, cell-based;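 also: intracellular parasites grown in NIH/3T3 mouse fibroblasts as host cells; luminescent beta-galactosidase reporter signal from transgenic T. cruzi replicating inside host cells; inhibitors lower the luminescence signal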
[8] = cytotoxicity toward NIH3T3 fibroblasts, dose response, counter-screen, cell-based, ATP luminescence, mouse fibroblasts (AID 2010); format: functional;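 also: cells exposed to compound for about 90 hours before reading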
[9] = biological target: T3, Corticotropin-releasing factor receptor 2/Corticotropin-releasing factor-binding protein (Homo sapiens, UniProt P24387+Q13324); test: activators of CRF receptor 2 with binding protein – uHTS hits, confirmation (AID 602473); format: functional; conditions: read-out: EC50_Mean
T3 sequence (Q13324 whole entry): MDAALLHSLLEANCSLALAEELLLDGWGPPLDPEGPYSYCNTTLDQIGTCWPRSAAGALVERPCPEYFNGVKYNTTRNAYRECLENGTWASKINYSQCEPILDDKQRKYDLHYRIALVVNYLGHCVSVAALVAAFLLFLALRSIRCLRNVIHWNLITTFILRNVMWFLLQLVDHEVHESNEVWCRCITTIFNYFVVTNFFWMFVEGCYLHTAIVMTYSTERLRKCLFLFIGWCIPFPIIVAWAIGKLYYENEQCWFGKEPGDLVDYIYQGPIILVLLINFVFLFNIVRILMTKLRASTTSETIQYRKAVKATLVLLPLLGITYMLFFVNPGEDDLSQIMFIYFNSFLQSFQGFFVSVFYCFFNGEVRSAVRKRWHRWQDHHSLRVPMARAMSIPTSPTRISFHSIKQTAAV
T3 sequence (P24387 whole entry): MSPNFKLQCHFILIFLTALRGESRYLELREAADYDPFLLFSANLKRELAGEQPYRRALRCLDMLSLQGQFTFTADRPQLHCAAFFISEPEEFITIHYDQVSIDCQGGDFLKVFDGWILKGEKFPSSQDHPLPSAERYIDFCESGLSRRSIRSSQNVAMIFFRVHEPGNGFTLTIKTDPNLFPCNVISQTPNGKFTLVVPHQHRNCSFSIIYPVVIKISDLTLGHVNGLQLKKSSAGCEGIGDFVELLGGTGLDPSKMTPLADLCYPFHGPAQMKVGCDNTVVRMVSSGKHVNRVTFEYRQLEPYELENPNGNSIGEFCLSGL

CN(C)c1ccc(C(c2ccc(N(C)C)cc2)c2ccc([N+](=O)[O-])cc2)cc1
AC50 (Cytochrome P450 1A2): 3.16 µM (inconclusive) | AC50 (Cytochrome P450 3A4): 2 µM (inconclusive)

Cc1ccsc1C(=O)OCC(=O)Nc1sccc1C(N)=O
EC50 [1]: > 150 µM (inactive) | EC50 [2]: 5.44 µM (active)

COc1ccc(CNc2nc(-c3ccc(C(=O)N(C)C)cc3)nc3ccccc23)c(OC)c1
AC50 (Cytochrome P450 3A4): 3.98 µM (inconclusive) | AC50 (Cytochrome P450 2C9): 1 µM (inconclusive)

COc1ccc(CNC(=O)c2coc(=O)c3ccccc23)c(OC)c1
EC50 [3]: > 120 µM (not active) | EC50 [4]: > 120 µM (not active) | EC50 [5]: > 120 µM (not active)

CC(C)[C@@H](C(=O)N1CCCC1)N1C(=O)N2CCc3c([nH]c4ccccc34)[C@@]2(C)C1=O
EC50 [3]: > 120 µM (not active) | EC50 [4]: > 120 µM (not active) | EC50 [5]: > 120 µM (not active)

CC1(C)CC(=O)C(CCC(=O)c2ccccc2)C(C)(C)N1 (stereo unspecified)
EC50 [6]: > 195 µM (not active) | AC50 (Cytochrome P450 2C19): 28.2 µM (inconclusive) | AC50 (Cytochrome P450 3A4): 12.6 µM (inconclusive)

Cc1nc(NCCc2ccc(S(N)(=O)=O)cc2)c2c(C)c(C)sc2n1
AC50 (INS1): 5.52 µM (active)

N#Cc1c(N2CCCCC2)nc(N2CCCCC2)c2c1CCN(Cc1ccccc1)C2
EC50 [7]: 0.505 µM (active) | EC50 [8]: > 30 µM (not active) | AC50 (INS1): 12.7 µM (active)

CN(C)c1oc(-c2ccccc2Cl)nc1C#N
EC50 [3]: > 120 µM (not active) | EC50 [4]: 19.6 µM (active) | EC50 [5]: 33.3 µM (active)

CC(=O)Nc1cccc(NC(=O)Nc2cccc(F)c2)c1
EC50 [1]: > 150 µM (inactive) | EC50 [2]: 3.22 µM (active)

Cc1nnsc1-c1onc(C)c1C(=O)Nc1cc(Cl)cc(Cl)c1
AC50 (INS1): 12.8 µM (active)

NNC(=O)c1cc(-c2cccs2)nc2ccccc12
EC50 [1]: > 150 µM (inactive) | EC50 [2]: > 38 µM (not active)

COc1ccc(-c2oc3ncn(CCN4CCOCC4)c(=N)c3c2-c2ccc(OC)cc2)cc1
EC50 [3]: 8.99 µM (active) | EC50 [4]: 19.6 µM (active) | EC50 [5]: 14.5 µM (active)

C=CCSc1nnc(C)c(/C=C/Nc2ccc(Cl)cc2)n1
EC50 [9]: 4.77 µM (active)

CCOc1cc(CNc2ccc3c(c2)OCCO3)cc(Br)c1OC
EC50 [3]: > 60 µM (inconclusive) | EC50 [4]: 10.7 µM (active)

O=C1C2C3C=CC([C@@H]2C(=O)N1C1CCCCC1)[C@H]1C(=O)N(C2CCCCC2)C(=O)C31 (stereo partly specified)
AC50 (Cytochrome P450 2C19): 17.8 µM (inconclusive) | AC50 (Cytochrome P450 3A4): 3.55 µM (inconclusive) | AC50 (Cytochrome P450 2C9): 6.31 µM (inconclusive)
